Laboratory results from patent US9540647B2, “Methods and compositions for the treatment of cancer” (University of South Alabama, priority 2010, dated 2017).
Entries after “also recorded” stand apart in the source; their conditions may differ.

Experiments:
ERCC1, XPD, XRCC1 = experiment: ERCC1, XPD and XRCC1 mRNA levels in A2780-CP70 cells (semi-quantitative PCR); type: cell-based, human; conditions: single agent at levels associated with 50% cell killing; 6-72 hr
RAW264.7 cells [1] = experiment: Osteoclast resorption activity (OAAS plates); type: cell-based, murine
Method: Osteoclast differentiation and activity assays—Tartarate-resistant acid phosphatase (TRAP) assay was conducted for RAW 264.7 following the manufacturer's protocol (Sigma, St. Louis, Mo.). This assay was indicative of the extent of differentiation. OAAS plates (Osteogenic Core Technologies, Choongnam, Republic of Korea) were utilized to measure osteoclastic activity. RAW 264.7 cells (25×103) were inoculated in 48-well plates. Cells were treated with serum-free conditioned media from breast cancer cells or 100 nM SHH or 100 ng/ml OPN on the following day. Media was changed every two days and the experiments were terminated either on day 6 (day 7 for knockdown experiments, with transfections being done on the sixth day). At the completion, cells were detached with 5% sodium hypochlorite and the wells were observed under a Nikon Eclipse TS 100 microscope at 10× magnification. […] The percentage of area resorbed was calculated using the NIS-Elements BR. 3.1 software.

[2] = tested on: OPN, MMP9, and Cathepsin K (CTSK); experiment: OPN, MMP9 and Cathepsin K expression in osteoclasts (qRT-PCR); type: cell-based, murine; conditions: osteoclasts with breast cancer conditioned medium; relative to DM
Method: Quantitative RT-PCR (qRT-PCR)—cDNA was generated using High Capacity Reverse Transcriptase Kit (Applied Biosystems, Foster City, Calif.). Real time PCR was performed in two cycles using a BioRad iQ5 Real-Time Detection system (Bio-Rad, Hercules, Calif.): the first cycle of 95° C. for 10 mins followed by 40 repeats of the second cycle comprising 95° C. for 15 sec followed by 60° C. for 1 min. All reactions were done in triplicate. Transcript levels were normalized to GAPDH levels (dCT) which was used to calculate changes in gene expression (2-ddCT). […] Following the experimental regime as described herein (for Osteoclast differentiation/activity) RNA was isolated using Trizol (Invitrogen) and assessed as described herein. The details of the primers used were as follows: OPN (Spp1; Mm00436767_m1), Matrixmetalloprotease 9 (MMP9; Mm00600163_m1), Cathepsin K (Ctsk; Mm00484036_m1), SHH (Hs00179843_m1), GLI1 (Hs01110766_m1), OPN (Hs00959010_m1), hGAPDH (Hs99999905_m1) and GAPDH (Mm99999915_g1).

OPN mRNA = experiment: OPN transcript levels by real-time RT-PCR in metastatic melanoma cell lines; type: cell-based, human; conditions: for levels of OPN mRNA: cyclopamine 24 h, qRT-PCR
Method: This medium was replaced with fresh cyclopamine-containing medium after 12 h. […] RNA was assessed by real-time RT-PCR for OPN transcript levels.
Stable vector only and non-targeting (scrambled control) transfectants were also generated. Stable transfectants were selected on medium supplemented with 500 μg/ml Geneticin (Invitrogen). The four GLI1-knocked down clones chosen were based on the extent of GLI1 knockdown and were termed KO1, KO2, KO3, and KO4. The expression of OPN was restored in the KO1 cells by transfecting with pcDNA3.1-OPN. A corresponding vector-only transfectant was also generated. Transfectants were selected on medium containing Geneticin (500 μg/ml) and hygromycin (750 μg/ml). Serum-free conditioned medium harvested from approximately 3.0×10^6 cells after 24 hr was assayed for OPN by immunoblotting.
Quantitative RT-PCR (qRT-PCR)—cDNA was generated using High Capacity Reverse Transcriptase Kit (Applied Biosystems, Foster City, Calif.). Real time PCR was performed using a Bio-Rad iQ5 Real-Time Detection system (Bio-Rad). All reactions were done as three independent replicates. All assays were done using the TaqMan Gene Expression Assays from Applied Biosystems. OPN (SPP1: Hs 00959010_m1) transcript levels were normalized to glyceraldehyde-3-phosphate dehydrogenase (Hs 99999905_m1) levels (δCT), which was used to calculate changes in OPN expression (2^−δδCT). […] GLI1 and SHH (Hs 00179843_m1) expressions were also similarly assessed with glyceraldehyde-3-phosphate dehydrogenase as an endogenous control. To analyze the knockdown effectiveness, “scrambled transfectants” of MDA-MB-435 was set as calibrator.

RAW264.7 cells [3] = experiment: Osteoclast differentiation (TRAP assay); type: cell-based, murine
Method: Cell lines—Human metastatic breast cancer cells, MDA-MB-231, were cultured in Dulbecco's Modified Eagle's Medium (DMEM/F12; Invitrogen, Carlsbad, Calif.), supplemented with 2 mM L-glutamine, 1 mM sodium pyruvate, 0.02 mM non-essential amino acids, 5% fetal bovine serum, FBS (Atlanta Biologicals, Norcross, Ga.), without antibiotics or antimycotics (cDME/F12). SUM1315 and SUM159 cells (DiMeo, T. A., et al. (2009) Cancer Res 69, 5364-5373) (Asterand, Detroit, Mich.) were cultured in DMEM/F12 supplemented with […], 5% FBS (Atlanta Biologicals) and either 10 ng/ml EGF or 1 ng/ml hydrocortisone, without antibiotics or antimycotics. The SUM1315 cells are derived from a metastasis in a patient with infiltrating ductal carcinoma; SUM159 cells were derived from a primary breast tumor with metaplastic carcinoma. RAW264.7 (ATCC, TIB 71) cells, a murine pre-osteoclastic line capable of differentiation and […] in culture (in presence of RANKL and MCSF), were grown in DMEM with L-glutamine (ATCC, 30-2002) supplemented with 10% FBS. A 2× differentiation medium (DM) was formulated for the RAW 264.7 cells comprising RAW264.7 growth medium supplemented with 20% FBS, RANKL (100 ng/ml) and M-CSF (40 ng/ml) (Matsubara, T., et al. J Bone Miner Res 25, 1068-1076). Conditioned media was harvested from breast cancer cells and mixed in a 1:1 ratio with double strength differentiation medium to assess the effect on osteoclast differentiation. 1×DM was used as control or wherever SHH (R & D Systems, Minneapolis, Minn.) or OPN (R & D Systems) was used alone. The medium on the RAW264.7 cells was replenished every 48 hours. In order to assess the effect of secreted Hh ligands, the neutralizing 5E1 antibody was used (Developmental Studies Hybridoma Bank, at the University of Iowa, Iowa). […] Medium was supplemented with 5E1 (2.5 μg/ml) and was changed on alternate days until the end of the experiment. The effect of OPN on osteoclast activity was assessed by transfecting an OPN shRNA-expressing construct on day 6 post-induction of differentiation. Fresh DM was added the following day and cells were allowed to grow for another 12 hours before termination of experiment. GLI1 expression was silenced in the SUM1315 cells using shRNA targeting GLI1 into pSuperior. gfp+neo (Oligoengine, WA, USA). Silencing of OPN expression was done using OPN-targeting shRNA cloned into pSuper (Oligoengine)
Osteoclast differentiation and activity assays—Tartarate-resistant acid phosphatase (TRAP) assay was conducted for RAW 264.7 following the manufacturer's protocol (Sigma, St. Louis, Mo.). This assay was indicative of the extent of differentiation. […] The percentage of area resorbed was calculated using the NIS-Elements BR. […]

OPN promoter [4] = experiment: OPN promoter luciferase reporter assay in metastatic melanoma cell lines; type: cell-based, human
From the text: (§1) Empty pGL3 vector was used as control. […] Readings were normalized to total protein content. Each parameter was studied in triplicate and the experiment repeated at least 3 times. The data are represented as percent luciferase activity, which was derived as a percent of the relative light units in treated groups compared with the untreated groups.

OPN promoter [5] = experiment: OPN promoter reporter activity in MC3T3-E1 pre-osteoblastic cells; type: cell-based, murine
Method: as §1
Empty pGL3 vector was used as control. Different concentrations of SHH ligand were added to the well the next day. Cells were lysed in Reporter Lysis buffer (Promega) 24 hrs post addition of SHH and both β-galactosidase assay and luciferase assays were done following manufacturer's protocol. Readings were normalized to β-galactosidase. Each parameter was studied in triplicate and the experiment repeated at least 3 times.

| Molecule | mRNAs for ERCC1, XPD, or XRCC1 (ERCC1, XPD, XRCC1) | ability of osteoclasts to resorb matrix (RAW264.7 cells [1]; cyclopamine (20 μM), stimulated with breast cancer conditioned medium) | levels of CTSK [2] | levels of MMP9 [2] | levels of OPN [2] | levels of OPN mRNA (OPN mRNA; MCC012A cells) | levels of OPN mRNA (OPN mRNA; MCC012F cells) | levels of OPN mRNA (OPN mRNA; MDA-MB-435 cells) | ability of tumor cells to induce osteoclast differentiation (RAW264.7 cells [3]; conditioned medium from MDA-MB-435 cells treated with cyclopamine) | ability of osteoclasts to differentiate (RAW264.7 cells [3]; cyclopamine (20 μM), DM and breast cancer cell-conditioned medium) | OPN promoter activity (OPN promoter [4]; MCC012A cells, Hedgehog ligand treatment) | OPN promoter activity (OPN promoter [4]; MCC012F cells, Hedgehog ligand treatment) | OPN promoter activity (OPN promoter [4]; MDA-MB-435 cells, increasing concentrations of ligand vs untreated control) | OPN promoter activity (OPN promoter [5]) | resorption activity of differentiated osteoclasts (RAW264.7 cells [1]; DM with OPN (100 ng/ml) or SHH (100 nM)) | OPN transcript levels, rescue of cyclopamine inhibition (OPN mRNA; MDA-MB-435 cells, cyclopamine 20 μM, after 12 hr medium with recombinant SHH (100 nM)) | numbers of multinucleate TRAP-positive cells (RAW264.7 cells [3]; DM supplemented with OPN (100 ng/ml) or SHH (100 nM) vs DM) |
| --- | --- | --- | --- | --- | --- | --- | --- | --- | --- | --- | --- | --- | --- | --- | --- | --- | --- |
| CC1=C2C[C@H]3[C@@H](CC=C4C[C@@H](O)CC[C@@]43C)[C@@H]2CC[C@]12O[C@@H]1C[C@H](C)CN[C@H]1[C@H]2C [cyclopamine] | no increase | significantly (*p<0.0001) compromises their ability to resorb matrix | significantly decreased | significantly decreased | significantly decreased | decreases the levels of OPN mRNA | decreases the levels of OPN mRNA | decreases the levels of OPN mRNA in a dose-dependent manner | significant reduction | significantly (*p<0.0001) compromises their ability to differentiate |  |  |  |  |  |  |  |
| SHH: recombinant Sonic Hedgehog ligand (R & D Systems) |  |  |  |  |  |  |  |  |  |  | significant increase | significant increase | significantly (p<0.0001) higher | activate OPN promoter; also recorded: upregulation in OPN promoter activity | significantly (* indicates p<0.001) increases the resorption activity | able to rescue the inhibitory effects of cyclopamine | potentiates differentiation; also recorded: stimulate osteoclast differentiation; also recorded: significantly (* indicates p<0.005) increases |
